The text below walks through data of the supplement of paper PMC10307832.

Experiment in all cases: relative viability (nuclei count vs DMSO), 5 days (fraction); higher = more cells survive
Compound in the experiment “Dabrafenib + Decitabine”: CC(C)(C)c1nc(-c2cccc(NS(=O)(=O)c3c(F)cccc3F)c2F)c(-c2ccnc(N)n2)s1 [Dabrafenib] + Nc1ncn([C@H]2C[C@H](O)[C@@H](CO)O2)c(=O)n1 [Decitabine] (partner 2 µM)
The procedure, abridged:
(§1)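 Cells from lung cancer lines were seeded into 1536-well plates and, one day later, dosed by pin tool. Treatments were either a single drug or a fixed dose of an anchor drug with five library-drug doses (not always all listed) in √10 steps. After 5 days, nuclei were stained in a one-step fixation (final 0.05% Triton X-100, 1% formaldehyde, 1 ug/ml Hoechst) and counted on 4× images, and relative viability is the treated-to-vehicle nuclei ratio, as the median of duplicate plates.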

Compound in the experiment “VX-702 + Linsitinib”: NC(=O)c1ccc(N(C(N)=O)c2c(F)cccc2F)nc1-c1ccc(F)cc1F [VX-702] + C[C@]1(O)C[C@@H](c2nc(-c3ccc4ccc(-c5ccccc5)nc4c3)c3c(N)nccn32)C1 [Linsitinib] (partner 1 µM)
The procedure, abridged:
as §1

Compound in the experiment “Dabrafenib + Phenformin”: CC(C)(C)c1nc(-c2cccc(NS(=O)(=O)c3c(F)cccc3F)c2F)c(-c2ccnc(N)n2)s1 [Dabrafenib] + N=C(N)NC(=N)NCCc1ccccc1 [Phenformin] (partner 250 µM)
The procedure, abridged:
as §1

Compound in the experiment “Dabrafenib + Luminespib”: CC(C)(C)c1nc(-c2cccc(NS(=O)(=O)c3c(F)cccc3F)c2F)c(-c2ccnc(N)n2)s1 [Dabrafenib] + CCNC(=O)c1noc(-c2cc(C(C)C)c(O)cc2O)c1-c1ccc(CN2CCOCC2)cc1 [Luminespib] (partner 0.01 µM)
Summed up: as §1

Take NCI-H2023: the relative viability was found to be 0.236 with Dabrafenib + Decitabine (first compound 0.003 µM); 0.222 with Dabrafenib + Decitabine (first compound 0.009487 µM); 0.196 with Dabrafenib + Decitabine (first compound 0.03 µM); 0.214 with Dabrafenib + Decitabine (first compound 0.09487 µM); 0.135 with Dabrafenib + Decitabine (first compound 0.3 µM); 0.568 in the experiment with VX-702 + Linsitinib (first compound 0.02 µM). Also, the relative viability with VX-702 + Linsitinib (first compound 0.2 µM) came out at 0.561; in the experiment with VX-702 + Linsitinib (first compound 0.6325 µM) it was 0.629; in the experiment with VX-702 + Linsitinib (first compound 2 µM), 0.612; in the experiment with Dabrafenib + Phenformin (first compound 0.003 µM), 0.4; with Dabrafenib + Phenformin (first compound 0.009487 µM), 0.406; in the experiment with Dabrafenib + Phenformin (first compound 0.03 µM), 0.419. The relative viability with Dabrafenib + Phenformin (first compound 0.09487 µM) was determined as 0.423; with Dabrafenib + Phenformin (first compound 0.3 µM), 0.443; with Dabrafenib + Luminespib (first compound 0.003 µM) it was 0.866; with Dabrafenib + Luminespib (first compound 0.009487 µM) it was 0.817; in the experiment with Dabrafenib + Luminespib (first compound 0.03 µM) it was 0.755; in the experiment with Dabrafenib + Luminespib (first compound 0.09487 µM), 0.661. Moreover, the relative viability with Dabrafenib + Luminespib (first compound 0.3 µM) was 0.84.

For the cell line NCI-H2085, the relative viability in the experiment with Dabrafenib + Decitabine (first compound 0.003 µM) was determined as 0.552; with Dabrafenib + Decitabine (first compound 0.009487 µM), 0.575; with Dabrafenib + Decitabine (first compound 0.03 µM), 0.559; with Dabrafenib + Decitabine (first compound 0.09487 µM), 0.592; with Dabrafenib + Decitabine (first compound 0.3 µM), 0.518; with VX-702 + Linsitinib (first compound 0.02 µM) it was 0.911. Also, the relative viability with VX-702 + Linsitinib (first compound 0.2 µM) is 0.882; with VX-702 + Linsitinib (first compound 0.6325 µM), 0.903; with VX-702 + Linsitinib (first compound 2 µM) it was 1.02; in the experiment with Dabrafenib + Phenformin (first compound 0.003 µM), 0.482; with Dabrafenib + Phenformin (first compound 0.009487 µM), 0.809; in the experiment with Dabrafenib + Phenformin (first compound 0.03 µM), 0.592. Besides, the relative viability turned out to be 0.596 in the experiment with Dabrafenib + Phenformin (first compound 0.09487 µM); 0.714 with Dabrafenib + Phenformin (first compound 0.3 µM); 0.402 with Dabrafenib + Luminespib (first compound 0.003 µM); 0.484 with Dabrafenib + Luminespib (first compound 0.009487 µM); 0.453 with Dabrafenib + Luminespib (first compound 0.03 µM); 0.428 with Dabrafenib + Luminespib (first compound 0.09487 µM). Moreover, the relative viability with Dabrafenib + Luminespib (first compound 0.3 µM) is 0.51.

As to NCI-H2087, the relative viability with Dabrafenib + Decitabine (first compound 0.009487 µM) was 0.305; with Dabrafenib + Decitabine (first compound 0.03 µM), 0.352; with Dabrafenib + Decitabine (first compound 0.09487 µM), 0.278; with Dabrafenib + Decitabine (first compound 0.3 µM) it was 0.213; in the experiment with VX-702 + Linsitinib (first compound 0.02 µM) it was 1.07; in the experiment with VX-702 + Linsitinib (first compound 0.2 µM) it was 0.982. For the same cell line, the relative viability with VX-702 + Linsitinib (first compound 0.6325 µM) amounted to 0.879; with VX-702 + Linsitinib (first compound 2 µM) it was 1.01; with Dabrafenib + Phenformin (first compound 0.009487 µM), 0.527; with Dabrafenib + Phenformin (first compound 0.03 µM) it was 0.597; with Dabrafenib + Phenformin (first compound 0.09487 µM) it was 0.395; in the experiment with Dabrafenib + Phenformin (first compound 0.3 µM), 0.391. For the same cell line, the relative viability with Dabrafenib + Luminespib (first compound 0.009487 µM) came out at 0.202; with Dabrafenib + Luminespib (first compound 0.03 µM), 0.163; with Dabrafenib + Luminespib (first compound 0.09487 µM) it was 0.154; with Dabrafenib + Luminespib (first compound 0.3 µM), 0.207.

Regarding NCI-H2126, the relative viability is 0.578 with Dabrafenib + Decitabine (first compound 0.003 µM); 0.591 with Dabrafenib + Decitabine (first compound 0.009487 µM); 0.57 with Dabrafenib + Decitabine (first compound 0.03 µM); 0.653 with Dabrafenib + Decitabine (first compound 0.09487 µM); 0.609 in the experiment with Dabrafenib + Decitabine (first compound 0.3 µM); 0.726 in the experiment with VX-702 + Linsitinib (first compound 0.02 µM). For the same cell line, the relative viability with VX-702 + Linsitinib (first compound 0.2 µM) is 0.697; with VX-702 + Linsitinib (first compound 0.6325 µM), 0.67; with VX-702 + Linsitinib (first compound 2 µM) it was 0.634; in the experiment with Dabrafenib + Phenformin (first compound 0.003 µM), 0.521; in the experiment with Dabrafenib + Phenformin (first compound 0.009487 µM), 0.551; with Dabrafenib + Phenformin (first compound 0.03 µM), 0.557. For the same cell line, the relative viability was 0.601 with Dabrafenib + Phenformin (first compound 0.09487 µM); 0.565 with Dabrafenib + Phenformin (first compound 0.3 µM); 0.964 with Dabrafenib + Luminespib (first compound 0.003 µM); 0.878 with Dabrafenib + Luminespib (first compound 0.009487 µM); 0.965 with Dabrafenib + Luminespib (first compound 0.03 µM); 0.936 with Dabrafenib + Luminespib (first compound 0.09487 µM). Moreover, the relative viability with Dabrafenib + Luminespib (first compound 0.3 µM) turned out to be 0.913.

NCI-H2347: the relative viability turned out to be 0.657 in the experiment with Dabrafenib + Decitabine (first compound 0.009487 µM); 0.598 with Dabrafenib + Decitabine (first compound 0.03 µM); 0.706 in the experiment with Dabrafenib + Decitabine (first compound 0.09487 µM); 0.616 with Dabrafenib + Decitabine (first compound 0.3 µM); 0.968 with VX-702 + Linsitinib (first compound 0.02 µM); 0.977 with VX-702 + Linsitinib (first compound 0.2 µM). Moreover, the relative viability came to 0.896 in the experiment with VX-702 + Linsitinib (first compound 0.6325 µM); 0.986 in the experiment with VX-702 + Linsitinib (first compound 2 µM); 0.461 with Dabrafenib + Phenformin (first compound 0.009487 µM); 0.229 with Dabrafenib + Phenformin (first compound 0.03 µM); 0.382 with Dabrafenib + Phenformin (first compound 0.09487 µM); 0.352 with Dabrafenib + Phenformin (first compound 0.3 µM). The relative viability is 0.508 with Dabrafenib + Luminespib (first compound 0.009487 µM), 0.231 in the experiment with Dabrafenib + Luminespib (first compound 0.03 µM), 0.71 with Dabrafenib + Luminespib (first compound 0.09487 µM) and 0.458 in the experiment with Dabrafenib + Luminespib (first compound 0.3 µM).

With NCI-H2405, the relative viability in the experiment with Dabrafenib + Decitabine (first compound 0.009487 µM) came to 0.742; with Dabrafenib + Decitabine (first compound 0.03 µM), 0.529; in the experiment with Dabrafenib + Decitabine (first compound 0.09487 µM), 0.692; with Dabrafenib + Decitabine (first compound 0.3 µM), 0.574; with VX-702 + Linsitinib (first compound 0.02 µM) it was 0.914; in the experiment with VX-702 + Linsitinib (first compound 0.2 µM), 0.981. For the same cell line, the relative viability with VX-702 + Linsitinib (first compound 0.6325 µM) stood at 0.896; with VX-702 + Linsitinib (first compound 2 µM), 0.982; in the experiment with Dabrafenib + Phenformin (first compound 0.009487 µM) it was 0.286; in the experiment with Dabrafenib + Phenformin (first compound 0.09487 µM) it was 0.37; with Dabrafenib + Phenformin (first compound 0.3 µM), 0.371; in the experiment with Dabrafenib + Luminespib (first compound 0.009487 µM), 0.619. Further, the relative viability with Dabrafenib + Luminespib (first compound 0.09487 µM) worked out at 0.528; with Dabrafenib + Luminespib (first compound 0.3 µM), 0.642.

Take NCI-H3122: the relative viability with Dabrafenib + Decitabine (first compound 0.003 µM) is 0.567; in the experiment with Dabrafenib + Decitabine (first compound 0.009487 µM), 0.404; with Dabrafenib + Decitabine (first compound 0.03 µM), 0.397; with Dabrafenib + Decitabine (first compound 0.09487 µM) it was 0.429; in the experiment with Dabrafenib + Decitabine (first compound 0.3 µM), 0.373; in the experiment with VX-702 + Linsitinib (first compound 0.02 µM), 1.02. Further, the relative viability was 1.02 with VX-702 + Linsitinib (first compound 0.2 µM); 0.985 with VX-702 + Linsitinib (first compound 0.6325 µM); 1.01 with VX-702 + Linsitinib (first compound 2 µM); 0.32 in the experiment with Dabrafenib + Phenformin (first compound 0.003 µM); 0.349 with Dabrafenib + Phenformin (first compound 0.009487 µM); 0.39 in the experiment with Dabrafenib + Phenformin (first compound 0.03 µM). Also, the relative viability with Dabrafenib + Phenformin (first compound 0.09487 µM) turned out to be 0.369; with Dabrafenib + Phenformin (first compound 0.3 µM), 0.37; in the experiment with Dabrafenib + Luminespib (first compound 0.003 µM), 0.0822; with Dabrafenib + Luminespib (first compound 0.009487 µM), 0.0926; with Dabrafenib + Luminespib (first compound 0.03 µM) it was 0.0643; with Dabrafenib + Luminespib (first compound 0.09487 µM), 0.131. In addition, the relative viability with Dabrafenib + Luminespib (first compound 0.3 µM) was determined as 0.0575.

With PC-3 [JPC-3], the relative viability in the experiment with Dabrafenib + Decitabine (first compound 0.009487 µM) is 0.865; with Dabrafenib + Decitabine (first compound 0.03 µM), 0.872; with Dabrafenib + Decitabine (first compound 0.09487 µM), 0.812; with Dabrafenib + Decitabine (first compound 0.3 µM) it was 0.804; with VX-702 + Linsitinib (first compound 0.02 µM), 0.966; with VX-702 + Linsitinib (first compound 0.2 µM), 1.01. The relative viability with VX-702 + Linsitinib (first compound 0.6325 µM) turned out to be 1.03; with VX-702 + Linsitinib (first compound 2 µM), 1.05; with Dabrafenib + Phenformin (first compound 0.003 µM) it was 0.405; with Dabrafenib + Phenformin (first compound 0.009487 µM), 0.491; with Dabrafenib + Phenformin (first compound 0.03 µM), 0.465; with Dabrafenib + Phenformin (first compound 0.09487 µM), 0.441. In addition, the relative viability was 0.476 in the experiment with Dabrafenib + Phenformin (first compound 0.3 µM); 0.782 in the experiment with Dabrafenib + Luminespib (first compound 0.003 µM); 0.649 in the experiment with Dabrafenib + Luminespib (first compound 0.009487 µM); 0.655 with Dabrafenib + Luminespib (first compound 0.03 µM); 0.736 with Dabrafenib + Luminespib (first compound 0.09487 µM); 0.696 with Dabrafenib + Luminespib (first compound 0.3 µM).
